Reference: US20020137929A1, “1 - (3-heterocyclylphenyl) isothiourea, -isourea, -guanidine and -amidine herbicidal agents” (Intellectual Property Department, BASF Aktiengesellschaft, priority 1998, published 2002)

How the values were obtained:
[1] = tested on: ABUTH (Velvetleaf); experiment: Preemergence herbicidal evaluation; assay type: in vivo, Abutilon theophrasti; conditions: rated 4-5 weeks after treatment
How it was run: (§1)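 Scores (0–9) reflect visual comparison with control plants for stand, vigor, malformation, size and chlorosis. Compound was applied to the soil after sowing, before emergence, as an aqueous acetone spray (about 0.0156–0.500 kg/ha), and cups were kept in a greenhouse for 4–5 weeks.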

[2] = tested on: ZEAMX (Corn, Field); experiment: Postemergence herbicidal evaluation; assay type: in vivo, Zea mays; conditions: postemergence
How it was run: (§2)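 Young plants, roughly two weeks from seeding, receive the active ingredient as a sprayed dispersion (acetone/water 50/50, 0.5% TWEEN 20) at 40 psi. Doses span about 0.0156 to 0.500 kg/ha. A visual score from 0 to 9 compares treated with control plants four to five weeks on.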

[3] = tested on: GLXMAW (Soybean, Williams); experiment: Preemergence herbicidal evaluation; assay type: in vivo, Glycine max, (L.) Merr. cv Williams; conditions: rated 4-5 weeks after treatment
How it was run: as §1

[4] = tested on: SETVI (Foxtail, Green); experiment: Postemergence herbicidal evaluation; assay type: in vivo, Setaria viridis; conditions: postemergence
How it was run: as §2

[5] = tested on: CHEAL (Lambsquarters, Common); experiment: Preemergence herbicidal evaluation; assay type: in vivo, Chenopodium album; conditions: rated 4-5 weeks after treatment
How it was run: as §1

[6] = tested on: CHEAL (Lambsquarters, Common); experiment: Postemergence herbicidal evaluation; assay type: in vivo, Chenopodium album; conditions: postemergence
How it was run: as §2

[7] = tested on: ABUTH (Velvetleaf); experiment: Postemergence herbicidal evaluation; assay type: in vivo, Abutilon theophrasti; conditions: postemergence
How it was run: as §2

[8] = tested on: CYPIR (Rice Flatsedge); experiment: Postemergence weed control under flooded paddy conditions; assay type: in vivo, Cyperus iria; conditions: postemergence weeds, rated 3 to 4 weeks after treatment
How it was run: (§3)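 Weeds 3 to 5 cm tall and rice seedlings at the 1.5 to 2.5 leaf stage were flooded, with water held 1.5 to 3 cm above the soil. Compounds in 50/50 v/v aqueous/acetone went into the flood water at about 0.0313 to 0.500 kg/ha. Visual 0-9 ratings versus control were made 3 to 4 weeks later.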

[9] = tested on: IPOHE (Morningglory, Ivyleaf); experiment: Postemergence herbicidal evaluation; assay type: in vivo, Ipomoea hederacea; conditions: postemergence
How it was run: as §2

[10] = tested on: ECHCG (Barnyardgrass); experiment: Postemergence herbicidal evaluation; assay type: in vivo, Echinochloa crus-galli; conditions: postemergence
How it was run: as §2

[11] = tested on: ORYSAT (Rice, Tebonnet); experiment: Postemergence herbicidal evaluation; assay type: in vivo, Oryza sativa, (L.) Tebonnet; conditions: postemergence
How it was run: as §2

[12] = tested on: ECHCG (Barnyardgrass); experiment: Preemergence herbicidal evaluation; assay type: in vivo, Echinochloa crus-galli; conditions: rated 4-5 weeks after treatment
How it was run: as §1

[13] = tested on: TRZAWR (Wheat, Winter, cv Riband); experiment: Preemergence herbicidal evaluation; assay type: in vivo, Triticum aestivum; conditions: rated 4-5 weeks after treatment
How it was run: as §1

[14] = tested on: ZEAMX (Corn, Field); experiment: Preemergence herbicidal evaluation; assay type: in vivo, Zea mays; conditions: rated 4-5 weeks after treatment
How it was run: as §1

[15] = tested on: IPOHE (Morningglory, Ivyleaf); experiment: Preemergence herbicidal evaluation; assay type: in vivo, Ipomoea hederacea; conditions: rated 4-5 weeks after treatment
How it was run: as §1

[16] = tested on: CASOB (Sicklepod); experiment: Preemergence herbicidal evaluation; assay type: in vivo, Cassia obtusifolia; conditions: rated 4-5 weeks after treatment
How it was run: as §1

[17] = tested on: CYPSE (Flatsedge); experiment: Postemergence weed control under flooded paddy conditions; assay type: in vivo, Cyperus serotinus; conditions: postemergence weeds, rated 3 to 4 weeks after treatment
How it was run: as §3

## C#CCOC(=O)CC1SC(=Nc2cc(-n3c(=O)cc(C(F)(F)F)n(C)c3=O)c(F)cc2Cl)N(CC=C)C1=O (stereo not drawn) [Compound 67, 2-Propynyl 3-allyl-2-{{2-chloro-5-[3,6-dihydro-3-methyl-2,6-dioxo-4-(trifluoromethyl)-1(2H)-pyrimidinyl]-4-fluorophenyl}imino}-4-oxo-5-thiazolidineacetate]
[1]; rate 0.0156 kg/ha
  Preemergence herbicidal rating ABUTH: 1.0
[1]; rate 0.0313 kg/ha
  Preemergence herbicidal rating ABUTH: 9.0
[1]; rate 0.0625 kg/ha
  Preemergence herbicidal rating ABUTH: 9.0
[1]; rate 0.1250 kg/ha
  Preemergence herbicidal rating ABUTH: 7.0
[1]; rate 0.2500 kg/ha
  Preemergence herbicidal rating ABUTH: 9.0
[2]; rate 0.0158 kg/ha
  ZEAMX herbicidal rating: 7.5
[2]; rate 0.0315 kg/ha
  ZEAMX herbicidal rating: 8.0
[2]; rate 0.0630 kg/ha
  ZEAMX herbicidal rating: 8.0
[3]; rate 0.0156 kg/ha
  Preemergence herbicidal rating GLXMAW: 0.0
[3]; rate 0.0313 kg/ha
  Preemergence herbicidal rating GLXMAW: 1.0
[3]; rate 0.0625 kg/ha
  Preemergence herbicidal rating GLXMAW: 2.0
[3]; rate 0.1250 kg/ha
  Preemergence herbicidal rating GLXMAW: 2.0
[3]; rate 0.2500 kg/ha
  Preemergence herbicidal rating GLXMAW: 2.0
[4]; rate 0.0158 kg/ha
  SETVI herbicidal rating: 9.0
[4]; rate 0.0315 kg/ha
  SETVI herbicidal rating: 9.0
[4]; rate 0.0630 kg/ha
  SETVI herbicidal rating: 9.0
[5]; rate 0.0156 kg/ha
  Preemergence herbicidal rating CHEAL: 2.0
[5]; rate 0.0313 kg/ha
  Preemergence herbicidal rating CHEAL: 9.0
[5]; rate 0.0625 kg/ha
  Preemergence herbicidal rating CHEAL: 9.0
[5]; rate 0.1250 kg/ha
  Preemergence herbicidal rating CHEAL: 9.0
[5]; rate 0.2500 kg/ha
  Preemergence herbicidal rating CHEAL: 9.0
[6]; rate 0.0158 kg/ha
  CHEAL herbicidal rating: 4.0
[6]; rate 0.0315 kg/ha
  CHEAL herbicidal rating: 6.0
[6]; rate 0.0630 kg/ha
  CHEAL herbicidal rating: 9.0
[7]; rate 0.0158 kg/ha
  ABUTH herbicidal rating: 5.0
[7]; rate 0.0315 kg/ha
  ABUTH herbicidal rating: 9.0
[7]; rate 0.0630 kg/ha
  ABUTH herbicidal rating: 9.0
[8]; Rate 0.0313 kg/ha
  Herbicidal rating CYPIR: 5.0
[8]; Rate 0.0625 kg/ha
  Herbicidal rating CYPIR: 5.0
[8]; Rate 0.1250 kg/ha
  Herbicidal rating CYPIR: 5.0
[8]; Rate 0.2500 kg/ha
  Herbicidal rating CYPIR: 8.0
[9]; rate 0.0158 kg/ha
  IPOHE herbicidal rating: 9.0
[9]; rate 0.0315 kg/ha
  IPOHE herbicidal rating: 9.0
[9]; rate 0.0630 kg/ha
  IPOHE herbicidal rating: 9.0
[10]; rate 0.0158 kg/ha
  ECHCG herbicidal rating: 3.0
[10]; rate 0.0315 kg/ha
  ECHCG herbicidal rating: 6.0
[10]; rate 0.0630 kg/ha
  ECHCG herbicidal rating: 7.0
[11]; rate 0.0158 kg/ha
  ORYSAT herbicidal rating: 4.0
[11]; rate 0.0315 kg/ha
  ORYSAT herbicidal rating: 4.5
[11]; rate 0.0630 kg/ha
  ORYSAT herbicidal rating: 5.0
[12]; rate 0.0156 kg/ha
  Preemergence herbicidal rating ECHCG: 0.0
[12]; rate 0.0313 kg/ha
  Preemergence herbicidal rating ECHCG: 0.0
[12]; rate 0.0625 kg/ha
  Preemergence herbicidal rating ECHCG: 0.0
[12]; rate 0.1250 kg/ha
  Preemergence herbicidal rating ECHCG: 1.0
[12]; rate 0.2500 kg/ha
  Preemergence herbicidal rating ECHCG: 1.0
[13]; rate 0.0156 kg/ha
  Preemergence herbicidal rating TRZAWR: 0.0
[13]; rate 0.0313 kg/ha
  Preemergence herbicidal rating TRZAWR: 0.0
[13]; rate 0.0625 kg/ha
  Preemergence herbicidal rating TRZAWR: 0.0
[13]; rate 0.1250 kg/ha
  Preemergence herbicidal rating TRZAWR: 1.0
[13]; rate 0.2500 kg/ha
  Preemergence herbicidal rating TRZAWR: 1.0
[14]; rate 0.0156 kg/ha
  Preemergence herbicidal rating ZEAMX: 0.0
[14]; rate 0.0313 kg/ha
  Preemergence herbicidal rating ZEAMX: 0.0
[14]; rate 0.0625 kg/ha
  Preemergence herbicidal rating ZEAMX: 1.0
[14]; rate 0.1250 kg/ha
  Preemergence herbicidal rating ZEAMX: 1.0
[14]; rate 0.2500 kg/ha
  Preemergence herbicidal rating ZEAMX: 1.0
[15]; rate 0.0156 kg/ha
  Preemergence herbicidal rating IPOHE: 0.0
[15]; rate 0.0313 kg/ha
  Preemergence herbicidal rating IPOHE: 0.0
[15]; rate 0.0625 kg/ha
  Preemergence herbicidal rating IPOHE: 2.0
[15]; rate 0.1250 kg/ha
  Preemergence herbicidal rating IPOHE: 3.0
[15]; rate 0.2500 kg/ha
  Preemergence herbicidal rating IPOHE: 6.0
[16]; rate 0.0156 kg/ha
  Preemergence herbicidal rating CASOB: 0.0
[16]; rate 0.0313 kg/ha
  Preemergence herbicidal rating CASOB: 0.0
[16]; rate 0.0625 kg/ha
  Preemergence herbicidal rating CASOB: 0.0
[16]; rate 0.1250 kg/ha
  Preemergence herbicidal rating CASOB: 2.0
[16]; rate 0.2500 kg/ha
  Preemergence herbicidal rating CASOB: 2.0
[17]; Rate 0.0313 kg/ha
  Herbicidal rating CYPSE: 0.0
[17]; Rate 0.0625 kg/ha
  Herbicidal rating CYPSE: 3.0
[17]; Rate 0.1250 kg/ha
  Herbicidal rating CYPSE: 3.0
[17]; Rate 0.2500 kg/ha
  Herbicidal rating CYPSE: 3.0
